Reference: patent US10577322B2, “5-methoxytryptophan and its derivatives and uses thereof” (National Health Research Institutes, priority 2015, dated 2020)

Key:
[1] = test system: proinflammatory cytokines; test: LPS-induced proinflammatory cytokines in peritoneal macrophages (ELISA); type: cell-based, mouse; details: LPS 24 h
Procedure: For peritoneal macrophage isolation, C57BL/6J mice were injected intraperitoneally with 2 ml of 4% thioglycollate. Four days after injection, the peritoneal cavity was washed with 5 ml of ice-cold RPMI1640 medium, and cells from the peritoneal exudates were collected by centrifugation, and suspended in RPMI1640 medium, then seeded on 15-cm dishes and allowed to adhere for 4 h. Floating cells were washed out, and adherent cells were used as peritoneal macrophages in the experiments. The cells were incubated with or without LPS (100 ng/ml) for the indicated time before each experiment, as in the protocol for the RAW264.7 cells.
Cytokine levels in the culture supernatants and serum were determined in microtiter plates (96-well) by a specific sandwich ELISA (Biosource) as previously described (Wu, J. Y. & Kuo, C. C. Pivotal role of ADP-ribosylation factor 6 in Toll-like receptor 9-mediated immune signaling. J Biol Chem 287, 4323-4334 (2012)) (Lee, G. L., et al. TLR 2 induces vascular smooth muscle cell migration through cAMP response element-binding protein-mediated interleukin-6 production. Arterioscler Thromb Vasc Biol 32, 2751-2760 (2012); hereinafter, Lee, G. L., et al.).
Furthermore, peritoneal macrophages were stimulated with LPS with or without 5-MTP. After 24 h, proinflammatory cytokines were measured by ELISA.

[2] = test system: caspase-3; test: Caspase-3 activity in splenocytes (fluorogenic substrate); type: in vivo, mice; details: 5-MTP 100 mg/kg, 16 h
Procedure: Caspase-3 activity was determined by the cleavage of the fluorometric substrate z-DEVD-AMC (Upstate Biotechnology) as previously described (Kuo, C. C., Liang, C. M., Lai, C. Y. & Liang, S. M. Involvement of heat shock protein(Hsp)90 beta but not Hsp90 alpha in antiapoptotic effect of CpG-B oligodeoxynucleotide. J Immunol 178, 6100-6108 (2007)).
In addition, caspase-3 activity in splenocytes of mice treated with saline, LPS or LPS plus 5-MTP (100 mg/kg) for 16 h was measured by fluorogenic substrate as described above. The results are shown in FIG. 9B, in which the error bare denotes mean±SD (n=6 mice/group).

SMILES: COc1ccc2[nH]cc(C[C@H](N)C(=O)O)c2c1 [5-MTP, 5-methoxytryptophan]
- IL-1β production [1]: inhibited
- IL-6 production [1]: inhibited
- TNF-α production [1]: inhibited
- LPS-induced caspase-3 cleavage in spleen cells [2]: prevented
